Assay results published in US10085442B2, “Agrochemical formulation” (SYNGENTA PARTICIPATIONS AG, priority 2014, dated 2018).

Test: Rainfastness of cyantraniliprole on soya leaf (Example 10)
Assay type: physicochemical, Glycine Max (Williams variety)
Settings: rain 10 mm/hour for one hour, 0.5 g of water replaced by copolymer
Description: A range of substrates can be used in this test with the chosen material in this example being a soya leaf. Herein the soya, Glycine Max (Williams variety), was grown for 4 weeks in 4 inch pots with the top 2 tri-foliates used in the study. The leaves were mounted using double sided tape to flat tiles (30 cm by 30 cm) at an even spacing of 6 leaves per tile.
A deposition solution was then prepared at the concentration which would be used under commercial application conditions. In this case 0.12 g of cyantraniliprole technical was added to […] water for the control and the effect of the styrene malemide co-polymer determined by creating a similar sample with 0.5 g of the water replaced by styrene malemide co-polymer. […]
The quantities of cyantraniliprole in the acetonitrile solutions determined by mass spectrometry using a Waters Acquity UPLC and Thermo TSQ Quantum Ultra Triple Quadrupole MS Instrument or just LC/MS/MS. • Column: • Phase Ace C18 • Length (mm) 50 • Internal diameter (mm) 3.0 • Particle Size (μm) 3 • and the % active ingredient remaining after rainfall determined by dividing the quantity of cyantraniliprole on each leaf after rainfall by that before rainfall. • Cyantraniliprole: 2% cyantraniliprole remained on the leaves. • Cyantraniliprole+styrene malemide copolymer: 45% cyantraniliprole remained on the leaves.

For CNC(=O)c1cc(C#N)cc(C)c1NC(=O)c1cc(Br)nn1-c1ncccc1Cl [Cyantraniliprole, cyantraniliprole], the “% cyantraniliprole remained on the leaves after rainfall” value was 2%.
